Experimental findings from patent US20190038628A1, “USE OF INHIBITORS OF THE ACTIVITY OR FUNCTION OF PI3K FOR THE TREATMENT OF PRIMARY SJOGREN'S SYNDROME” (Novartis AG, priority 2016, published 2019) are described below.

The structures appear in SMILES notation.

For test [1], the system named is B cells from Buffy Coat. In words: CXCL13-induced B cell migration (transwell). The class given is cell-based, human. To be noted: for cell count (migrated B cells): mean of 4 wells. On the procedure:
PBMC were isolated from Buffy Coat as described above. Cells were washed two times with PBS and then resuspended at 5×10^7/mL in PBS containing 2% FBS and 1 mM EDTA. Further B cell purification was performed via depletion of non-B cells with an EasySep™ Human B Cell Enrichment Kit (STEMCELL Technologies #19054) according to the manufacture's instruction. In brief, 4×10^8 PBMCs in 8 ml isolation buffer were incubated with 400 ul of enrichment cocktail in a 14 mL round-bottom tube for 10 minutes at room temperature. PBMC were further incubated with 600 ul of magnetic particles for 5 minutes at room. For B cell isolation, the tube was placed into the magnet for 5 min and enriched B cells were collected in a fresh 14 ml tube. Cells were then washed and resuspended at 5×10^6/mL in RPMI 1640 medium supplemented with 10% FBS, Gentamycine (50 ug/ml), Insulin-Transferrin-Selenium and P-Mercaptoethanol (50 uM).
Isolated B cells were dispensed to 5 ml round-bottom tube (Costar #352054) and incubated with pre-diluted compound A resulting in a dilution with a final concentration of 10, 1, 0.1 or 0.01 uM. Control samples were pretreated with DMSO to obtain a final concentration of 0.1% DMSO. Samples were mixed thoroughly and incubated in a water bath at 37° C. for 30 minutes. Some 235 ul of CXCL13 (R&D Systems #801-CX) in a dilution with a final concentration of 100 nM was added to the wells of the 96-well transwell receiver plate (Costar #3387). Control wells were filled with 235 ul medium. The 5 um permeable support insert was added to the receiver plate and filled with 80 ul of pre-incubated B cells. Transwell plate was incubated in a humified incubator at 37° C. for 3 h. Permeable support insert was removed and cell number in receiver plate was assessed by flow cytometry.

The subject of test [2] is PI3K/Akt pathway. In words: pAkt in B cells in stimulated whole blood clinical samples after single oral administration. Format: in vivo. Conditions: healthy human subjects. The protocol: For assessment of the in vivo effects of compound A on human B cell activation measured as Akt phosphorylation vlinical samples were prepared from whole blood using a Na-Heparin monovette system.
Whole blood was then incubated with either anti-IgM/IL-4 (7.5 μg/ml of anti-IgM [Southern Biotech] and 7.5 ng/ml of IL-4 [R&D]) or with PBS (unstimulated sample). Incubation was performed using 95 μl of blood (in duplicates) in plate format within 1 h after blood collection. Cultures were mixed well by gently pipetting up and down and incubated at 37° C. (in incubator, 5% CO2). After 30 min whole blood was lysed and fixed with pre-warmed (37° C.) BD PhosFlow-Lyse/Fix buffer (1600 μl) for 20 minutes at 37° C. (water bath) in the dark. The lysed and fixed blood samples were immediately frozen and stored at −80° C. until further processing.
Clinical samples were processed within one week after blood collection. After thawing was completed (at 37° C. water-bath), samples were centrifuged at 502 g (1580 rpm) for 5 min at room temperature. Then pelleted cells were washed with 500 μL ice cold BD Phosflow Perm II buffer, mixed well and kept on ice for 30-35 minutes. […]
Samples were analyzed on the same day. […] Data was calculated as percent inhibition of pAkt relative to the baseline value.

Test [3] relates to Splenic B cell from Balb/c nu/nu mice. The test is described as follows: LPS-induced antibody production from mouse B cells in vitro. Format: cell-based. Conditions: Mouse spleen, stimulus LPS/IL-4, readout IgM, mean of at least two experiments. On the procedure:
The LPS-induced B cell functions were investigated according to a protocol adapted from Moon (Moon et al 1989) with minor modifications: Splenic B cell from Balb/c nu/nu mice were cultured with mIL-4, mIL-5 and LPS in the presence of titrated amounts of compound. The final concentrations were 0.5×10^5 splenocytes/well, 500 U/ml mIL-4, 500 U/ml mIL-5, and 50 μg/ml LPS. Supernatants were analyzed for antibody production by ELISA after 6 days of incubation.

Test [4] concerns Murine B cells. The test is described as follows: Mouse B cell proliferation following BCR stimulation. The class given is cell-based. Conditions: Mouse spleen, stimulus Anti-IgM, mean of at least two experiments. On the procedure:
Murine B cells were stimulated via BCR by anti-IgM antibody in the presence of titrated amounts of compounds as described in (Julius et al 1984) and proliferation was assessed by incorporation of radioactive ^3H-Thymidine.

As to `CCC(=O)N1CC[C@H](Nc2ncnc3c2CN(c2cnc(OC)c(C(F)(F)F)c2)CC3)C1` [Compound A, 1-{(S)-3-[6-(6-Methoxy-5-trifluoromethyl-pyridin-3-yl)-5,6,7,8-tetrahydro-pyrido[4,3-d]pyrimidin-4-ylamino]-pyrrolidin-1-yl}-propan-1-one], in test [1] (Homo sapiens, B-cell, compound A 10 nM), the inhibition (usually the relative decrease from the control value, in per cent) at 0.01 µM stood at 13%. Besides, in test [1] (Homo sapiens, B-cell, compound A 100 nM), the inhibition at 0.1 µM is 39%. Moreover, the inhibition at 1 µM in test [1] (Homo sapiens, B-cell, compound A 1000 nM) was 52%. Further, in test [1] (Homo sapiens, B-cell, compound A 10000 nM), 10 µM produced 79% inhibition. In addition, the “cell count (migrated B cells)” value in test [1] (compound A 10 nM) turned out to be 6165; in test [1] (compound A 100 nM) it was 4556; in test [1] (compound A 1000 nM) it was 3743; in test [1] (compound A 10000 nM) it was 2043. Further, the “pathway inhibition (PI3K/Akt)” value in test [2] (single administration of 80 mg, over 12 hours) was “greater than 80%”. For the same compound, in test [2] (single oral administration), the “inhibition of the PI3K/Akt pathway (in words)” value is “dose-, concentration- and time-dependent inhibition”. The figures for the IC50 in test [3] and in test [4] were 234 nM and 8 nM, respectively.
